Experimental data from patent US20260183396A1, “CXCR3 OVEREXPRESSION IN CAR-NK CELLS PRIMES MIGRATION/HOMING INTO THE TUMOR MICROENVIRONMENT” (DANA-FARBER CANCER INSTITUTE, INC., priority 2022, published 2026).

Legend:
[1] = biological target: T1, CXCR3 (Homo sapiens, UniProt P49682); assay: CXCR3 surface expression after hCXCL10, flow cytometry; type: cell-based; settings: NK cells, NK92, Jurkat; 200 ng hCXCL10
T1 construct: endogenous in cells; host or cells: primary NK cells (cNK, CIML); NK92 and JURKAT CXCR3+ lines; also CAR and CAR-CXCR3 transduced NK cells
T1 sequence (P49682 1-368): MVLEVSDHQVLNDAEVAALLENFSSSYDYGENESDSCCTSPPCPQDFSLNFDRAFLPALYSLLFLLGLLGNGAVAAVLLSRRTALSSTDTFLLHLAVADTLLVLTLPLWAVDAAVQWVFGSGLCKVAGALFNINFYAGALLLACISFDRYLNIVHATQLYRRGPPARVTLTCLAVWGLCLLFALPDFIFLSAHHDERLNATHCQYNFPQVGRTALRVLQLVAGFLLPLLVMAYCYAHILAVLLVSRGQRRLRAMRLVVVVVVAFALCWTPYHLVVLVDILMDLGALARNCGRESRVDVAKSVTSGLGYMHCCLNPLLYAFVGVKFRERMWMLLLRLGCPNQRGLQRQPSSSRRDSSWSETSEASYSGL
Procedure: CXCR3 is degraded from the cell surface of primary NK cells and the NK cell lines NK92 and […] both expressing CXCR3, after stimulation with 200 ng of recombinant human C—X—C Motif Chemokine Ligand 10 (hCXCL10) at different time points, as illustrated in FIG. 17A-FIG. 18B, measured by flow cytometry and expressed as median fluorescent intensity (MFI) of the CXCR3 receptor. CXCR3 is also degraded from CAR and CAR-CXCR expressing cNK cells. FIG. 18C-FIG. 18D illustrate CXCR3 surface expression as measured by flow cytometry of primary NK cells (cNK) expressing CAR, CAR-CXCR3 or control, stimulated with 200 ng of recombinant human CXCL10 stimulation at different time points (0 and 60 minutes). CXCR3 is degraded from cNK NT, CAR-cNK, and CAR-NK CXCR+ cell surfaces after 1 hour of hCXCL10 treatment (FIG. 19C). CXCR3 is also degraded from cytokine-induced memory-like (CIML) NK NT, CIML CAR-NK, CIML CAR-NK CXCR+ after 1 hour of hCXCL10 treatment (FIG. 19D).

[2] = system: STING; assay: STING immunoblotting in NK cells and TILs; type: cell-based, human; settings: NK cells
Procedure: Immunoblotting. […] Imaging of blots and was performed using the LI-COR Odyssey system.

[3] = system: MPM tumor cell lines; assay: 3D vascular model of NK cell migration; type: cell-based, human
Procedure: 3D vascular model. To generate the tumor-vascular model, H226 spheroids were mixed with collagen rat tail hydrogel (2.5 mg/ml) and injected into the center gel region of the 3D microfluidic chamber (10-15 μL per each microfluidic chamber). After incubation for 30 minutes at 37° C. in sterile humidity chambers, the side wall of one flanked channel (media channel) was coated with a 150 μg/ml collagen solution in PBS to allow for better adhesion of eCs to the channel. After 15 mins, the channel was washed once with media. To create the 3D vessel, 25 μL cell suspension of 3×10^6 cells/ml human umbilical vein endothelial cells (HUVECs; C2519AS, Lonza) were injected in the media channel coated with collagen. The channel was rotated twice to create a confluent hollow-lumen 3D vessel. To allow the cells to attach to the media-gel interface and form a monolayer, the chip was incubated with cells face down for 15 mins. Next, 50 μL cell suspension was reinjected, and the chip was flipped to cover the upper part of the 3D vascular channel. After 90 mins of incubation in the humidity chamber at 37° C., cell culture media was gently added to both channels and further incubated to form a confluent monolayer. After vessel formation, NK cells (labelled with cell tracker) were added to the 3D vessel at 2:1 E:T ratio. […] NK cell migration+/−vessel was quantified at 24 hours. Image capture and analysis was performed using a fluorescence confocal microscope and processing software. The 3D vascular channels were rinsed in PBS and fixed with 4% PFA for 15 min at room temperature. Cell membranes were permeabilized with 0.1% Triton X-100 for 5 min at room temperature and washed twice with PBS. HUVEC cells were stained for F-actin with green phalloidin (Thermo Fisher Scientific A12379) and Hoechst 33342. Images were captured on a Nikon Eclipse 80i fluorescence microscope equipped with Z-stack (Prior) and CoolSNAP CCD camera (Roper Scientific).

[4] = system: NK cells; settings: systemic administration, murine models; related manuscript; cited from earlier work
[5] = system: NK cells; assay: Immune cell toxicity assays, NK cells; type: cell-based; settings: 72 hours of high dose exposure; regardless of IL-2 or co-culture with TILs
Procedure: Immune Cell Toxicity Assays. […] Following treatment, samples were stained with anti-CD45, anti-CD3, anti-CD4, anti-CD8, and anti-CD56 antibodies (Table 1), as well as Zombie Green live/dead (Biolegend 423111) and analyzed by flow cytometry as described above. Data were analyzed using FlowJo software version 10.5.3. As an orthogonal measure of viability, CellTiter-Glo was performed on primary T-cells and NK cells.
CellTiter-Glo luminescent cell viability assay. Cell viability was assessed using the CellTiter-Glo Luminescent Cell Viability assay (Promega, G7571) according to manufacturer's instructions. […] All conditions were tested in triplicate and plates were read on a Tecan Infinite Mplex Microplate Reader.

hCXCL10: recombinant human C—X—C Motif Chemokine Ligand 10
CXCR3 cell surface expression [1]: lost from the cell surface

CCN(CC)CCCC(C)Nc1ccnc2cc(Cl)ccc12 (stereo not drawn) [chloroquine]
effect on ADU-S100 induced STING degradation [2]: prevented

Nc1ncnc2c1ncn2[C@@H]1O[C@@H]2CO[P@@](=O)(S)O[C@@H]3[C@H](O)[C@@H](CO[P@@](=O)(S)O[C@H]2[C@H]1F)O[C@H]3n1cc(F)c2c(=O)nc[nH]c21 [TAK-676]
overcoming a human vascular barrier ([3]; ex vivo model): especially potent | NK cell migration ([3]; presence and absence of the vascular barrier): enhanced NK cell migration | trafficking and activation of NK cells [4]: enhanced | cytotoxicity in human NK cells [5]: no significant cytotoxicity
